Among the data in patent publication US20120022054A1, “NOVEL SUBSTITUTED ARYL DERIVATIVES, THEIR PROCESS OF PREPARATION AND THEIR THERAPEUTICAL USES AS ANTI-HIV AGENTS” (priority 2008, published 2012) are EC50 values, retold here.

Where two headings read alike, the source gives them in different places.

The term EC50 denotes the midpoint of the concentration-response curve.

In assay [1] the test system is Env-deleted NL4-3 vector virus pseudotyped with the VSV g envelope. Description: microbe, parasite or virus in culture. The class given is cell-based, HIV-1. As to conditions: Vesicular stomatitis virus, NL43, SUP-T1, 48 h, read-out: EC50 for antiviral activity (50% inhibition of luciferase activity).
The test system of the next assay is NL4-3 strain of HIV-1. Nature of the assay: Multiple cycle infection assay of CAp24 antigen production. The class given is cell-based. The note with it: Human immunodeficiency virus 1, NL43, SUP-T1, 96 h, read-out: EC50 for antiviral activity (50% inhibition of CA p24 production).
The mark [2] stands for this setting: multiple cycle infection with NL4-3 virus, SupT1, MT4 or PBMC, MOI 0.01, day 4 and day −6 post-infection, threshold below 5 μM.

`COc1ccccc1CN(C)C(=O)CCCSc1ccc(F)c(Cl)c1` [Example 141, 4-[(3-Chloro-4-fluorophenyl)thio]-N-(2-methoxybenzyl)-N-methylbutanamide]: the concentration for a half-maximal effect (EC50) (in assay [1]; in the assay with NL4-3 strain of HIV-1 (setting [2])) was < 5 µM each time.

Turning to `COC(=O)c1ccc(SCCCC(=O)N(C)Cc2cc(F)ccc2OC)cc1` [Example 147, Methyl 4-({4-[(5-fluoro-2-methoxybenzyl)methylamino]-4-oxobutyl}thio)benzoate], the EC50 (in assay [1]; in the assay on NL4-3 strain of HIV-1 (setting [2])) was < 5 µM throughout.

On to `COc1ccc(F)cc1CN(C)C(=O)CCCSc1ccc(CO)cc1` [Example 148, N-(5-fluoro-2-methoxybenzyl)-4-{[4-(hydroxymethyl)phenyl]thio}-N-methylbutanamide], for which the concentration giving a half-maximal response (EC50) (in assay [1]; in the assay with NL4-3 strain of HIV-1 (setting [2])) was < 5 µM in each case.

As for `COc1ccccc1CN(C)C(=S)CCCSc1ccc(O)cc1` [Example 164, 4-[(4-Hydroxyphenyl)thio]-N-(2-methoxybenzyl)-N-methylbutanethioamide], the EC50 (in assay [1]; with NL4-3 strain of HIV-1 (setting [2])) was < 5 µM in each case.

`CN(Cc1ccccc1C1=CCNCC1)C(=O)CCCSc1ccc(O)cc1` [Example 168, 4-[(4-Hydroxyphenyl)thio]-N-methyl-N-[2-(1,2,3,6-tetrahydropyridin-4-yl)benzyl]butanamide]: the concentration giving a half-maximal response (EC50) (in assay [1]; in the assay with NL4-3 strain of HIV-1) was < 5 µM in each case.

Consider `CCOC(=O)c1cc(F)ccc1SCCCC(=O)N(C)c1cccc(F)c1` [Example 193, Ethyl 5-fluoro-2-({4-[(3-fluorophenyl)(methyl)amino]-4-oxobutyl}thio)benzoate], for which the EC50 (in assay [1]; in the assay on NL4-3 strain of HIV-1 (setting [2])) was < 5 µM in each case.
